Ends that are not written are not given here.
Experiments:
[1] = system: S. aureus MRSA ATCC 33591; assay: Neutropenic mouse MRSA thigh infection model; format: in vivo, Staphylococcus aureus; settings: neutropenic male ICR mice; 10 mg/kg IV once or twice (2 h or 2 and 8 h post infection)
Method: In the thigh infection model, using neutropenic mice,[25] groups of five male ICR mice weighing 22 ± 2 g were inoculated intramuscularly (IM) with S. aureus MRSA, ATCC 33591 (1.57 × 10^5 CFU/mouse (0.1 ml/thigh)) in the right thigh. Lynronne-1, Lynronne-2 and Lynronne-3 at 10 mg/kg were intravenously (IV) administered once 2 h post infection or twice 2 and 8 h post-infection. The reference substance, vancomycin, was also intravenously injected 2 and 8 h post-infection at 10 and 30 mg/kg. Test animals were sacrificed 26 h after inoculation and the infected thighs were excised and the bacterial burden (CFU/gram) was determined.

[2] = system: MRSA strains; settings: sub-MIC levels, 25 days, daily passage
Method: To evaluate if populations of AMP-resistant bacteria could be selected, cultures were continuously exposed to Lynronne-1, Lynronne-2 and Lynronne-3 for a duration of 25 days, as previously described.[40] Briefly, broth microdilution susceptibility testing was performed using a standard doubling-dilution series of Lynronne-1, Lynronne-2 and Lynronne-3 concentrations on day 1.

[3] = system: EMRSA-15; assay: SPOT peptide library screen (resazurin fluorescence); format: cell-based, Staphylococcus aureus; set-up: unit not given here; settings: 75% reduction of fluorescence vs untreated controls; active IC75≤0.25, semi-active 0.25<IC75≤0.50, inactive IC75>0.5
Excerpt: (§1) The peptides in the created peptide library were synthesized based on the SPOT technique and pure peptides (≥95% purity) were synthesized on resin using solid phase Fmoc peptide chemistry.[16] The 135 peptides in the peptide library were screened for antimicrobial activity using both luminescent (Pseudomonas aeruginosa strain H1001)[34] and non-luminescent (epidemic methicillin resistant S. aureus EMRSA-15, Sal. typhimurium and E. coli K12) bacterial strains. Activity against non-luminescent bacteria strains was assessed by fluorescence readings (excitation/emission spectra of 560/590 nm) after the addition of resazurin dye (100 µm final concentration). The results from the screen were analysed using the MATLAB extension Gait-CAD as previously described.[35] Concentration values with a 75% reduction of luminescence or fluorescence (IC75) in relation to untreated controls were computed.

[4] = system: HUVEC and HepG2 cells; settings: for total growth inhibition (TGI): HUVEC and HepG2 cells (cell line not given)
Method: Cytotoxic activity of the identified peptides was determined using HUVEC and HEPG2 cells as described previously.[41],[42] […] Significant responses were defined when observed cell growth was ≤50% and tube length was ≤70% using the proliferation and tube formation assays respectively. Permeabilization of eukaryotic membrane by Lynronne-1, Lynronne-2 and Lynronne-3 was also investigated using HepG2 cells as described previously.[43]

[5] = Peptide-lipid interaction with pure lipids, lipid monolayer; format: binding; settings: peptide 1 µg/ml; for Interaction with pure lipids: POPG, cardiolipin, LTA, POPE above POPC, initial surface pressure 30 ± 0.5 mN/m
Method: Membrane permeabilsation was evaluated using propidium iodide assay as previously explained,[43] with CTAB as positive control. Peptide–lipid interaction was measured using reconstituted lipid monolayer.[44] Total lipid extract from overnight liquid cultures of MRSA USA300 was obtained by Folch extraction, resuspended in chloroform and stored at −20 °C under nitrogen conditions. Pure bacterial and eukaryotic lipids, POPG, cardiolipin, LTA, POPE and POPC (Avanti Polar Lipid USA) were reconstituted in chloroform at 1 mg/ml and stored at −20 °C under nitrogen. Using a 50 µl Hamilton’s syringe, total MRSA lipid extract or pure lipids were spread at the surface of PBS creating a lipid monolayer at the air-water interface until an initial surface pressure of 30 ± 0.5 mN/m was reached. This corresponds to a lipid packing density theoretically equivalent to that of the outer leaflet of the cell membrane.[45] After 5–10 min of incubation allowing evaporation of the solvent and stabilization of the initial surface pressure, peptides were injected into the PBS (pH 7.4, volume 800 µl) sub-phase using a 10 µl Hamilton syringe. The variation of the surface pressure caused by peptide injection was then continuously monitored using a fully automated microtensiometer (µTROUGH SX, Kibron Inc., Helsinki, Finland) until reaching equilibrium (maximal surface pressure increase usually obtained after 15–25 min). Critical pressure of insertion of each peptide in the different lipids was also determined by changing the initial pressure of lipid monolayer (from 10 and 30 mN/m) and measuring the variation of pressure caused by the injection of peptide (at 1 µg/ml final concentration). All experiments were carried out in a controlled atmosphere at 20 °C ± 1 °C and data were analyzed using the Filmware 2.5 program (Kibron Inc., Helsinki, Finland). Variation of surface pressure was plotted as a function of initial surface pressure and critical pressure of insertion was calculated as the theoretical value of initial pressure of lipid monolayer not permissive to peptide insertion, i.e., a variation of pressure equal to 0 mN/m. The accuracy of the system under our experimental conditions was determined to be ± […] for surface pressure measurements.

[6] = system: Sal. typhimurium; assay: SPOT peptide library screen (resazurin fluorescence); format: cell-based, Salmonella enterica serovar Typhimurium; set-up: unit not given here; settings: 75% reduction of fluorescence vs untreated controls; active IC75≤0.25, semi-active 0.25<IC75≤0.50, inactive IC75>0.5
Excerpt: as §1

[7] = system: C. coli
Method: (§2) Peptides dissolved in sterile distilled water and comparator antibiotics dissolved in the appropriate solvents[38] were added to sterile U-bottom polypropylene 96-well microplates at desired concentrations.

[8] = system: USA300 MRSA (BAA-1717); assay: Murine model of MRSA wound infection; format: in vivo, Staphylococcus aureus; settings: ICR mice, topical 2% once daily for 3 days, five mice/group
Method: The efficacy of Lynronne-1, Lynronne-2 and Lynronne-3 for treating a wound infection caused by USA300 community-associated methicillin resistant S. aureus (MRSA, strain BAA-1717) was evaluated using a murine wound model with ICR mice.[24] A sharp punch (ID 12 mm) was used to create excisional skin wounds in groups of five female ICR mice (5–6 weeks old). The mice were inoculated topically on the wound area (5 µl per wound) with 1.05 × 10^5 CFU/mouse of strain BAA-1717 suspended in 5 µl PBS. Peptides (2 or 10% w/v) in PBS (pH 7.4), control (PBS), and mupirocin 2% (Dermasafe® ointment) were topically applied (20 µl/mouse) directly to wounds 2 h post infection and once daily thereafter for three consecutive days. Test animals were sacrificed and the wound tissue was excised for enumeration of bacteria cells (CFU/wound). A two-log reduction in the bacterial count (≥99% reduction) relative to the control group indicates significant activity. Statistical significance (P < 0.05) was performed with one-way analysis of variance (ANOVA) followed by use of the Dunnett’s method.

[9] = system: E. coli K12; assay: MIC, broth microdilution; format: cell-based, Escherichia coli; settings: strain K12; cation adjusted MHB, 18–24 h
Method: as §2

HLRRINKLLTRIGLYRHAFG-NH2 [Lynronne-2]
Antimicrobial effect compared to the vehicle/control group (0.9% NaCl) [1]: not associated with any significant antimicrobial effects
Resistance acquisition during serial passage [2]: failed to produce mutants that were resistant
IC75 values indicating activity classes, EMRSA-15 [3]: 0.29
Cytotoxic activity [4]: no cytotoxic activity
Interaction with pure lipids [5]: preferentially interact with lipids specific to bacteria
Affinity for lipids by critical pressure of insertion ([5]; initial pressure varied 10 to 30 mN/m): highest affinity for LTA
IC75 values indicating activity classes, Sal. typhimurium [6]: 0.09
MIC [7]: >128 µg/mL
Colony count relative to the control group treated with PBS [8]: No significant decreases
MIC [9]: 64 µg/mL

LPRRNRWSKIWKKVVTVFS-NH2 [Lynronne-1]
Antimicrobial effect compared to the vehicle/control group (0.9% NaCl) [1]: not associated with any significant antimicrobial effects
Resistance acquisition during serial passage [2]: failed to produce mutants that were resistant
IC75 values indicating activity classes, EMRSA-15 [3]: 0.38
total growth inhibition (TGI) [4]: 67.1 µg/mL
Interaction with pure lipids [5]: preferentially interact with lipids specific to bacteria
IC75 values indicating activity classes, Sal. typhimurium [6]: 0.24
MIC [7]: 64 µg/mL
Colony count relative to the control group treated with PBS [8]: significant decrease
MIC [9]: 32 µg/mL

NRFTARFRRTPWRLCLQFRQ-NH2 [Lynronne-3]
Antimicrobial effect compared to the vehicle/control group (0.9% NaCl) [1]: not associated with any significant antimicrobial effects
Resistance acquisition during serial passage [2]: failed to produce mutants that were resistant
IC75 values indicating activity classes, EMRSA-15 [3]: 0.65
total growth inhibition (TGI) [4]: 61.2 µg/mL
Interaction with pure lipids [5]: preferentially interact with lipids specific to bacteria
IC75 values indicating activity classes, Sal. typhimurium [6]: 0.41
MIC [7]: 128 µg/mL
Colony count relative to the control group treated with PBS [8]: No significant decreases
MIC [9]: 64 µg/mL

From article PMC5711939, “The rumen microbiome: an underexplored resource for novel antimicrobial discovery” (NPJ Biofilms and Microbiomes, 2017)
